Results as given in PubChem BioAssay AID743462 (Vanderbilt Specialized Chemistry Center, 2014).
pEC50: −log10 of the molar value.

Biological target: Metabotropic glutamate receptor 8 (Rattus norvegicus) (UniProt P70579)
Assay: potentiation of glutamate response at mGlu8 – cell-based, rat receptor, GIRK thallium flux, confirmation (AID 743462)

Chain of Metabotropic glutamate receptor 8 (Rattus norvegicus) (P70579 whole entry, looked up): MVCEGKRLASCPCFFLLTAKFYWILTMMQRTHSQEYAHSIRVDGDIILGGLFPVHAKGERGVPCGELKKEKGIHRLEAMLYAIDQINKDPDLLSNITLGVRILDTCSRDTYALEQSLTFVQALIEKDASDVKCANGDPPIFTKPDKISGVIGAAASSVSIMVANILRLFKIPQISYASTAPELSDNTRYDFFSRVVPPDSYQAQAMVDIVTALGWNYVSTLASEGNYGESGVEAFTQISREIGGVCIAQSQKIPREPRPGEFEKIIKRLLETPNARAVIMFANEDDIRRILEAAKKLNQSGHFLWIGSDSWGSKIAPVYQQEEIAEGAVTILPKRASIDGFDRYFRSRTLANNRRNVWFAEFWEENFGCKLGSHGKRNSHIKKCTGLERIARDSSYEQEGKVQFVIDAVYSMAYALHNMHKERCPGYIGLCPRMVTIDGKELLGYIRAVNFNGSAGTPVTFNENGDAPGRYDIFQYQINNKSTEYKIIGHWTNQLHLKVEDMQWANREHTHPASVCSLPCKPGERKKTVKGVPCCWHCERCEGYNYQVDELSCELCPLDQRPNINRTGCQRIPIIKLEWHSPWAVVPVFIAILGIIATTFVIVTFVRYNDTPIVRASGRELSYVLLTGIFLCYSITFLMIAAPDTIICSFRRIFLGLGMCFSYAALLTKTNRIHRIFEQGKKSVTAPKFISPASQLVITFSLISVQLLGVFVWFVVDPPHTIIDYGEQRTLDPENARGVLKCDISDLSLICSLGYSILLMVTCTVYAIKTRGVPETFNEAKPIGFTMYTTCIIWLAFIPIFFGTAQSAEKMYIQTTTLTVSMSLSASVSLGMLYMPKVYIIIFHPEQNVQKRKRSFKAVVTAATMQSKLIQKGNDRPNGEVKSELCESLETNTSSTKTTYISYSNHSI

Molecule `COC(=O)c1ccc(-n2c(C)cc(C(=O)CSc3ccc(NC(C)=O)cc3)c2C)cc1` has a pEC50 of 5.74.
